{
  "source": "patent US20030096022A1",
  "about": "“Compositions and methods for the treatment and prevention of cardiovascular diseases and disorders, and for identifying agents therapeutic therefor” (Medlyte, Inc., priority 2000, published 2003)",
  "key": {"Adult rat cardiomyocytes": {"system": "Adult rat cardiomyocytes", "experiment": "Hypoxia-induced sphingosine (SPH) production/release in cultured adult cardiomyocytes, HPLC of extracted sphingolipids", "format": "cell-based", "settings": "cells pretreated 30 min with TNFRII:Fc 0.5 ng/mL or L-carnitine 20 ng/mL prior to 5 h hypoxia, FIG. 4", "experimental": "Adult rat cardiomyocytes were subjected to hypoxic conditions as described above and assayed for their ability to produce sphingolipid bases involved in the sphingomyelin signal transduction cascade.\nCardiomyocytes were cultured on plastic dishes that were placed in a humidified modular incubator chamber (ICN Biomedicals, Aurora, Ohio) pressurized to 0.04-0.05 psi by the particular gas mixture used in the treatment. Warm (37° C.) Tyrode's solution containing 0.2 mM BSA, ampicillin ([…]), kanamycin (100 mg/mL) and fungizone (20 μg/mL) was gassed in a 50 mL sterile conical for 15 minutes with 95%N2/5% CO2 prior to adding the solution to the cultured cells. The pO2 was monitored by a Micro pO2 System oxygen electrode (Lasar Research Labs, Los Angeles, Calif.) and found to be 4.0 PPM for the duration of the hypoxia condition. […] The pH of control and experimental cell cultures was monitored with a micro pH electrode (Beetrode pH Electrodes, Sarasota, Fla.) and remained constant at pH=7.26+/−0.02 for normoxic cells and 7.15+/−0.03 for hypoxic cells throughout the experiment. […]\nThe HPLC analysis was performed using a Beckman (Fullerton, Calif.) System Gold 118 Solvent Module and 507e Autosampler. A Jasco (Easton, Md.) FP-920 Intelligent Fluorescence Detector was used with an excitation wavelength of 330 nm and emission wavelength of 455 nm. […]"}, "[1]": {"system": "Langendorff rat heart model of ischemia", "experiment": "Global ischemia and reperfusion in isolated Langendorff-perfused rat heart (left ventricular pressure)", "settings": "0.1 mM gentamicin recirculated 30 min, 40 min global ischemia, 45 min reperfusion; FIG. 5", "description": "The protocol used was essentially that described by Sakai et al. (A device for recording left ventricular contraction and electrocardiogram in nonworking isolated perfused rat heart, Jpn J Pharmacol 28:223-9, 1978), and Zelinski et al., (Phosphatidylcholine biosynthesis in isolated hamster heart, J Biol Chem. 255:11423-8, 1980) with the exception, in the latter instance, that rat studies were used in the experiments described herein instead of hamster hearts.\nIn brief, rats were anesthetized and their hearts were excised. The isolated hearts were cannulated and attached to Langendorff perfusion apparatus, and perfused with KH buffer. The hearts were allowed to stabilize for 5-10 min. After stabilization, the hearts should be paceable and drip rate should be between 5 and 10 mls per minute.\nA small hole was cut in the left atrium of each animal to expose the mitral valve. A deflated transducer balloon was introduced into the left ventricle through the hole in left atrium. The transducer tube was taped and adjusted so that there was no pressure on the heart. Left ventricular pressure was measured and recorded using the MacLab program. […]\nAfter about 45 min., the perfusate was turned off and the ventricular pressure was no longer recorded. […]"}, "[2]": {"molecular_target": "tumor necrosis factor alpha (TNFα) released by hypoxic rat cardiomyocytes (rat) (UniProt P16599)", "sequence (P16599 80-235 limits assumed)": "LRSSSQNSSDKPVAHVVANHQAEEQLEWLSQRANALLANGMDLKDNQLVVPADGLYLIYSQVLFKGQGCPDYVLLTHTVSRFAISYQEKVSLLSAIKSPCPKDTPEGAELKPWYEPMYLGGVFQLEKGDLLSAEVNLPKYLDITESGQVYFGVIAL", "experiment": "cell-based or functional assay"}},
  "data": [
    {"molecule": "C[N+](C)(C)C[C@H](O)CC(=O)[O-]", "note": "[L-carnitine]", "values": [
      {"measurement": "reducing the amount of total SPH (hypoxia-induced production of sphingosine)", "setting": "Adult rat cardiomyocytes", "result": "significantly (p<0.01) reducing"},
      {"measurement": "reducing the amount of total SPH (hypoxia-induced production of sphingosine)", "setting": "Adult rat cardiomyocytes; listed as L-camitine", "result": "blocks"}
    ]},
    {"molecule": "Gentamicin Sulfate", "values": [
      {"measurement": "ischemia and reperfusion injury", "setting": "[1]", "result": "mitigated"}
    ]},
    {"molecule": "TNFRII:Fc receptor fragment (from UniProt P20333 23-257) (Fc fusion)", "values": [
      {"measurement": "SPH release from hypoxic adult rat cardiomyocytes (HPLC)", "setting": "[2]", "result": 3, "unit": "fold"}
    ]}
  ]
}
